Measured values: US7595334B2, “Broadspectrum 2-(substituted-amino)-benzoxazole sulfonamide HIV protease inhibitors” (Tibotec Pharmaceuticals Ltd., priority 2001, dated 2009)

Experiments:
[1] = test system: mock-infected MT4 cells; test: in vitro
Experimental: (§1) HIV- or mock-infected MT4 cells were incubated for five days in the presence of various concentrations of the inhibitor. […] Cell viability is measured by measuring the concentration of MTT, a yellow, water soluble tetrazolium dye that is converted to a purple, water insoluble formazan in the mitochondria of living cells only. Upon solubilization of the resulting formazan crystals with isopropanol, the absorbance of the solution is monitored at 540 nm. The values correlate directly to the number of living cells remaining in the culture at the completion of the five day incubation. The inhibitory activity of the compound was monitored on the virus-infected cells and was expressed as EC50 and EC90. These values represent the amount of the compound required to protect 50% and 90%, respectively, of the cells from the cytopathogenic effect of the virus. The toxicity of the compound was measured on the mock-infected cells and was expressed as CC50, which represents the concentration of compound required to inhibit the growth of the cells by 50%. The selectivity index (SI) (ratio CC50/EC50) is an indication of the selectivity of the anti-HIV activity of the inhibitor. Wherever results are reported as e.g. pEC50 or pCC50 values, the result is expressed as the negative logarithm of the result expressed as EC50 or CC50 respectively.
(§2) As a measure of the broad spectrum activity of the present compounds, the fold resistance (FR), defined as FR=EC50(mutant strain)/EC50(HIV-1 strain LAI), was determined.

[2] = test system: HIV strain B (clinically isolated, protease mutations); type: cell-based; conditions: FR=EC50(mutant strain B)/EC50(HIV-1 strain LAI)
Experimental: as §1, §2

[3] = test system: HIV strain E (clinically isolated, protease mutations); type: cell-based; conditions: FR=EC50(mutant strain E)/EC50(HIV-1 strain LAI)
Experimental: as §1, §2

[4] = test system: HIV strain C (clinically isolated, protease mutations); type: cell-based; conditions: FR=EC50(mutant strain C)/EC50(HIV-1 strain LAI)
Experimental: as §1, §2

[5] = test system: HIV strain A (clinically isolated, protease mutations); type: cell-based; conditions: FR=EC50(mutant strain A)/EC50(HIV-1 strain LAI)
Experimental: as §1, §2

[6] = test system: HIV strain D (clinically isolated, protease mutations); type: cell-based; conditions: FR=EC50(mutant strain D)/EC50(HIV-1 strain LAI)
Experimental: as §1, §2

[7] = test system: HIV strain F (clinically isolated, protease mutations); type: cell-based; conditions: FR=EC50(mutant strain F)/EC50(HIV-1 strain LAI)
Experimental: as §1, §2

CC(C)CN(C[C@@H](O)[C@H](Cc1ccccc1)NC(=O)O[C@H]1CO[C@H]2OCC[C@H]21)S(=O)(=O)c1ccc2nc(NCCN(C)C)oc2c1 [Compound 2]
Tox (pCC50) [1]: <4
B (FR) fold resistance [2]: 0.49
E (FR) fold resistance [3]: 0.36
C (FR) fold resistance [4]: 0.59
A (FR) fold resistance [5]: 1.1
D (FR) fold resistance [6]: 0.32
F (FR) fold resistance [7]: 2.7

CC(C)CN(C[C@@H](O)[C@H](Cc1ccccc1)NC(=O)O[C@H]1CO[C@H]2OCC[C@H]21)S(=O)(=O)c1ccc2nc(N(C)CCN3CCCC3)oc2c1 [Compound 8]
Tox (pCC50) [1]: <4
B (FR) fold resistance [2]: 5.8
C (FR) fold resistance [4]: 1.7
A (FR) fold resistance [5]: 30
D (FR) fold resistance [6]: 5.8
F (FR) fold resistance [7]: 58

COC(=O)Nc1nc2ccc(S(=O)(=O)N(CC(C)C)C[C@@H](O)[C@H](Cc3ccccc3)NC(=O)OCc3cncs3)cc2o1 [Compound 9]
Tox (pCC50) [1]: <4
B (FR) fold resistance [2]: 1.2
E (FR) fold resistance [3]: 3.6
C (FR) fold resistance [4]: 1.2
A (FR) fold resistance [5]: 3.5
D (FR) fold resistance [6]: 2.7
F (FR) fold resistance [7]: 14.5

CC(=O)Nc1nc2ccc(S(=O)(=O)N(CC(C)C)C[C@@H](O)[C@H](Cc3ccccc3)NC(=O)OCc3cncs3)cc2o1 [Compound 11]
Tox (pCC50) [1]: <4
B (FR) fold resistance [2]: 2.1
E (FR) fold resistance [3]: 4.8
C (FR) fold resistance [4]: 2.5
A (FR) fold resistance [5]: 42
D (FR) fold resistance [6]: 10
F (FR) fold resistance [7]: 74

CCOC(=O)Nc1nc2ccc(S(=O)(=O)N(CC(C)C)C[C@@H](O)[C@H](Cc3ccccc3)NC(=O)OCc3cncs3)cc2o1 [Compound 12]
Tox (pCC50) [1]: <4
B (FR) fold resistance [2]: 1.4
E (FR) fold resistance [3]: 2.5
C (FR) fold resistance [4]: 2.5
A (FR) fold resistance [5]: 8.5
D (FR) fold resistance [6]: 4.8
F (FR) fold resistance [7]: 15

CC(C)CN(C[C@@H](O)[C@H](Cc1ccccc1)NC(=O)OCc1cncs1)S(=O)(=O)c1ccc2nc(NC(=O)C3CCC(=O)N3)oc2c1 (stereo partly shown) [Compound 13]
Tox (pCC50) [1]: <4
B (FR) fold resistance [2]: 0.75
E (FR) fold resistance [3]: 0.91
C (FR) fold resistance [4]: 0.64
A (FR) fold resistance [5]: 2.3
D (FR) fold resistance [6]: 0.91
F (FR) fold resistance [7]: 5.2

CC(C)CN(C[C@@H](O)[C@H](Cc1ccccc1)NC(=O)OCc1cncs1)S(=O)(=O)c1ccc2nc(NC(=O)c3ccco3)oc2c1 [Compound 14]
Tox (pCC50) [1]: 5.03
B (FR) fold resistance [2]: 3.8
E (FR) fold resistance [3]: 3.1
C (FR) fold resistance [4]: 3.1
A (FR) fold resistance [5]: 5.2
D (FR) fold resistance [6]: 3.7
F (FR) fold resistance [7]: 19

CC(C)CN(C[C@@H](O)[C@H](Cc1ccccc1)NC(=O)OCc1cncs1)S(=O)(=O)c1ccc2nc(NC(=O)C3CCN(C)CC3)oc2c1 [Compound 15]
Tox (pCC50) [1]: <4
B (FR) fold resistance [2]: 0.81
E (FR) fold resistance [3]: 1.5
C (FR) fold resistance [4]: 1.1
A (FR) fold resistance [5]: 2.3
D (FR) fold resistance [6]: 1.7
F (FR) fold resistance [7]: 7.8

CC(C)CN(C[C@@H](O)[C@H](Cc1ccccc1)NC(=O)OCc1cncs1)S(=O)(=O)c1ccc2nc(NC(=O)c3ccccn3)oc2c1 [Compound 16]
Tox (pCC50) [1]: 4.25
B (FR) fold resistance [2]: 0.72
E (FR) fold resistance [3]: 1.1
C (FR) fold resistance [4]: 0.69
A (FR) fold resistance [5]: 3.5
D (FR) fold resistance [6]: 3.3
F (FR) fold resistance [7]: 17

CC(C)CN(C[C@@H](O)[C@H](Cc1ccccc1)NC(=O)OCc1cncs1)S(=O)(=O)c1ccc2nc(NC(=O)c3cccnc3)oc2c1 [Compound 18]
Tox (pCC50) [1]: 4.24
B (FR) fold resistance [2]: 0.85
E (FR) fold resistance [3]: 2.6
C (FR) fold resistance [4]: 1.5
A (FR) fold resistance [5]: 2.6
D (FR) fold resistance [6]: 3.0
F (FR) fold resistance [7]: 13

CC(C)CN(C[C@@H](O)[C@H](Cc1ccccc1)NC(=O)OCc1cncs1)S(=O)(=O)c1ccc2nc(NC(=O)CN(C)C)oc2c1 [Compound 19]
Tox (pCC50) [1]: <4
B (FR) fold resistance [2]: 0.81
C (FR) fold resistance [4]: 0.91
A (FR) fold resistance [5]: 3.0
D (FR) fold resistance [6]: 2.2
F (FR) fold resistance [7]: 17

CC(C)CN(C[C@@H](O)[C@H](Cc1ccccc1)NC(=O)OCc1cncs1)S(=O)(=O)c1ccc2nc(NC(=O)CN(C)CCN3CCCC3)oc2c1 [Compound 24]
Tox (pCC50) [1]: <4
B (FR) fold resistance [2]: 0.53
E (FR) fold resistance [3]: 1.4
C (FR) fold resistance [4]: 1.3
A (FR) fold resistance [5]: 1.9
D (FR) fold resistance [6]: 1.6
F (FR) fold resistance [7]: 6.8

CC(C)CN(C[C@@H](O)[C@H](Cc1ccccc1)NC(=O)OCc1cncs1)S(=O)(=O)c1ccc2nc(NC(=O)CN3CCN(C)CC3)oc2c1 [Compound 25]
Tox (pCC50) [1]: 4.31
B (FR) fold resistance [2]: 1.3
E (FR) fold resistance [3]: 3.9
C (FR) fold resistance [4]: 3.0
A (FR) fold resistance [5]: 3.9
D (FR) fold resistance [6]: 3.9
F (FR) fold resistance [7]: 18

CC(C)CN(C[C@@H](O)[C@H](Cc1ccccc1)NC(=O)OCc1cncs1)S(=O)(=O)c1ccc2nc(N(C)C(=O)c3ccccn3)oc2c1 [Compound 26]
Tox (pCC50) [1]: 4.14
B (FR) fold resistance [2]: 2.45
E (FR) fold resistance [3]: 11
C (FR) fold resistance [4]: 3.4
A (FR) fold resistance [5]: 9.3
D (FR) fold resistance [6]: 15
F (FR) fold resistance [7]: 59

CC(C)CN(C[C@@H](O)[C@H](Cc1ccccc1)NC(=O)OCc1cncs1)S(=O)(=O)c1ccc2nc(N(C)C(=O)C3CCC(=O)N3)oc2c1 (stereo partly shown) [Compound 30]
Tox (pCC50) [1]: <4

CC(C)CN(C[C@@H](O)[C@H](Cc1ccccc1)NC(=O)OCc1cncs1)S(=O)(=O)c1ccc2nc(N(C)C(=O)c3ccncc3)oc2c1 [Compound 31]
Tox (pCC50) [1]: <4
B (FR) fold resistance [2]: 1.3
C (FR) fold resistance [4]: 1.25
A (FR) fold resistance [5]: 9.5
D (FR) fold resistance [6]: 7.6
F (FR) fold resistance [7]: 33

CC(C)CN(C[C@@H](O)[C@H](Cc1ccccc1)NC(=O)OCc1cncs1)S(=O)(=O)c1ccc2nc(N(C)C(=O)c3cccnc3)oc2c1 [Compound 32]
Tox (pCC50) [1]: <4
B (FR) fold resistance [2]: 1.7
C (FR) fold resistance [4]: 1.1
A (FR) fold resistance [5]: 8.3
D (FR) fold resistance [6]: 8.1
F (FR) fold resistance [7]: 42

CC(C)CN(C[C@@H](O)[C@H](Cc1ccccc1)NC(=O)OCc1cncs1)S(=O)(=O)c1ccc2nc(NC(=O)[C@H]3CCCN3C)oc2c1 [Compound 35]
Tox (pCC50) [1]: 4.26
B (FR) fold resistance [2]: 2.3
C (FR) fold resistance [4]: 1.1
A (FR) fold resistance [5]: 13
D (FR) fold resistance [6]: 3.5
F (FR) fold resistance [7]: 48
